According to ChEMBL document CHEMBL3507680, “University of Dundee, Gates Library screen for HepG2 cell viability”:

Assay: Human HepG2 cell viability assay in 384 well format
Format: toxicity, cell-based
Set-up: dose 125 nL, time 70.5 hour; cytotoxicity at 70.5 h: concentration not given beside the values
Conditions: HepG2 cells, read-out: Inhibition

SMILES | cytotoxicity at 70.5 h [%]
Cc1cnc(N2CC[C@H]3[C@H](C[C@@H](CN(C)C)N3C)C2)nc1 | -6.09
CCCc1noc(CN2CCC(NC(=O)c3ccc(C)s3)CC2)n1 | -4.33
CCc1cnc(NCc2ccccc2Cn2cccn2)nc1 | 0.071
Cc1cc(C(=O)N2CCC(c3nccn3CCCN(C)C)CC2)no1 | 0.885
Cc1nccn1CC1CCCN1S(=O)(=O)Cc1ccon1 (configuration not stated) | 4.51
CCN(Cc1cccc(C)c1)Cn1nc(C)c2c(C)onc2c1=O | -10.8
CC(C)c1nc(N2CC(N3CCCCC3C)C2)c2cnn(C)c2n1 (configuration not stated) | 12
COc1ccc2c(c1)C(C(=O)N(C)CCc1cnn(C)c1)CC(=O)N2 (configuration not stated) | -8.46
CC1(C)CNC(=O)c2nc(-c3ccccc3)[nH]c2C1 | 14.6
Cc1nc2c(c(NCCc3nc4c(s3)CCCC4)n1)CCNCC2 | -9.11
CN(C)CCNC(=O)c1ccc(OC2CCN(S(C)(=O)=O)CC2)c(Cl)c1 | -9.41
CN(C)c1nccc(N2CCO[C@H]3CN(Cc4ccsc4)C[C@H]32)n1 | -6
CCS(=O)(=O)N1CCC2(CC1)CC(CC(=O)NC1CC1)c1ccccc12 (configuration not stated) | 17.6
COCCC(=O)N1CCCC1c1nc(O)cc(-c2ccccn2)n1 (configuration not stated) | -5.06
CN(C)CCO[C@@H]1CC[C@H]2[C@H]1OCCN2C(=O)CCc1ccccc1 | -12.8
CCN1CCc2cc(-c3cncn3CC(=O)NC(C)(C)C)ccc21 | -6.27
CC(=O)c1ccc(N2CCN(C(=O)NC(C)c3ccc(C)o3)CC2)cc1 (configuration not stated) | -3.78
COC(=O)[C@H]1CN(C(=O)NC(C)C)CCN1C(=O)C1CCCCC1 | 10.7
Cc1csc(C(=O)N2CCC(S(C)(=O)=O)CC2)c1 | -5.62
COc1cccc(CC(=O)N2CCC(O)(C(F)(F)F)C2)c1 (configuration not stated) | -4.06
O=C(C1=CCCC1)N1CCO[C@H]2[C@@H](OCC3CC3)CC[C@@H]21 | -17.4
Cc1ccc(Cl)cc1NC(=O)Nc1c[nH]c(=O)[nH]c1=O | 0.569
COCCNC(=O)[C@H]1CN(Cc2cccs2)C[C@H]2OCC[C@@H]12 | 25.4

SMILES | cytotoxicity at 70.5 h [%]
Cc1cc(-c2nc(-c3cccc(CN4CCOCC4)c3)no2)no1 | 0.395
CN(C)C(=O)N1CCN(Cc2ccc3occc3c2)[C@H]2CS(=O)(=O)C[C@H]21 | -3.65
Cn1cc(-c2cnc(-c3ccnn3C)nc2)cc1C(=O)N1CCCC1 | -4.76
O=C(c1ccco1)N1CCOCC2(CCN(C3CCOCC3)C2)C1 (configuration not stated) | -8.45
CCOc1cccc(CNc2ccccc2OC)c1O | -8.56
NC(=O)CNC(c1ccccc1)c1ccc(OC(F)F)cc1 (configuration not stated) | 11.2
Cc1cc(-c2cnc(N3CCCCCC3)nc2-c2cccnc2C)on1 | -12.8
CCc1noc(C(C)N2CCN(S(=O)(=O)N3CCCC3)CC2)n1 (configuration not stated) | -8.69
Cc1ccsc1CNC(=O)N(C)Cc1cnn(C)c1 | -12.7
O=C(O)CN(C(=O)c1ccccc1)[C@H]1C[C@H]2CCOC[C@H]2C1 | -10.1
COCc1cncc2c1CCN(C(=O)c1ccoc1C)C2 | -2.3
CCn1cnnc1CNC(=O)N(C)Cc1ccc2c(c1)OCCO2 | 6.83
CS(=O)(=O)c1cc(NC(=O)COc2ccccc2F)cc(C(=O)O)c1 | -2.84
CCC(Nc1nc(C(C)C)nc2c1cnn2C)c1ccncc1 (configuration not stated) | -7.7
COCCC(=O)NCCCOC1CCCc2ccccc21 (configuration not stated) | 1.55
O=C(N1CCC(Oc2ccncc2)C1)C1(c2ccccc2F)CC1 (configuration not stated) | -16.9
CC(NC(=O)NCCC(=O)OC(C)(C)C)c1nncn1C (configuration not stated) | -0.412
CC(C)(C)C(O)CN1CCN(C(=O)c2cccc3ncccc23)CC1 (configuration not stated) | 20.7
CC(=O)N(Cc1noc(C2CC2)n1)C1CCN(Cc2ccncc2)C1 (configuration not stated) | 19.8
CN(Cc1nnc2ccccn12)C(=O)CCNC(=O)C(C)(C)C | 17.1
COCCCC1CCCCN1Cc1cc(F)ccc1-n1cccn1 (configuration not stated) | 9.72
O=C(NC1CC1)N1CCOCC2(CCN(Cc3cccs3)C2)C1 (configuration not stated) | -16
COc1ccc2c(c1)ncn2C[C@]1(O)CCCN2CCCC[C@@H]21 | -13.3

SMILES | cytotoxicity at 70.5 h [%]
O=C(COC1CCCC1)NS(=O)(=O)c1ccc2c(c1)OCCCO2 | -6.27
CC(C(=O)N1CCc2sccc2C1)N1CCC(N2CCCC2)CC1 (configuration not stated) | 0.91
O=C(NC[C@@H]1CCCN1)c1cc(COc2cccc(C(F)(F)F)c2)[nH]n1 | -1.5
CCOC(=O)N1CCC(OC)c2ccccc2N(C)C(=O)C1 (configuration not stated) | 1.4
COC1(CNC(=O)c2cccc(C#N)c2)CCSC1 (configuration not stated) | 42.8
CC(C)CC(CC(C)C)NC(=O)c1ccn(C)c(=O)c1 | 1.9
CCCn1nc(C)c(CNC(=O)C2COc3ccc(OC)cc3C2)c1C (configuration not stated) | -2.92
O=C(NCc1ccc(Br)cc1)NCC1CCOC1 (configuration not stated) | -10.4
CCCn1ccnc1CN1CCN(C2CCOCC2)CC(C(N)=O)C1 (configuration not stated) | -10.4
COc1ncnc(N(C)C)c1NC(=O)Cc1cc(F)ccc1F | -5.92
COc1ccc(CN2CC[C@@H](N)[C@@H](OC)C2)cc1Cn1cncn1 | -6.47
Cc1cc(-n2nc(C)nc2-c2cn(CCN)nn2)ccn1 | -6.15
COc1ncc(C)cc1NC(=O)COCC(F)(F)F | 2.73
CC(C)NC(=O)NC[C@H]1C[C@@H]2CCN1C[C@@H]2CN(C)c1ccccc1 | -0.173
CC(C)Oc1cccc(CN2CCC(c3n[nH]c4ncccc34)CC2)c1 | 30.6
O=C(N1CCCC1)N1CCOCC2(C1)CN(c1ccccc1)C(=O)CO2 (configuration not stated) | -3.56
CCCc1nnc(NCCn2nc(C)c(Cl)c2C)o1 | -7.4
CS(=O)(=O)N1CC[C@H]2OCC[C@@]2(C(=O)NCC2CC2)C1 | -7.08
Cn1cc(C2COC3(CCN(C(=O)c4cccc(O)c4)CC3)C2)cn1 (configuration not stated) | -11.7
CNCCCNc1nc(C2CCCC2)nc2c1cnn2C | 2.51
CCN1CC(C(=O)NCCc2csc(-c3ccncc3)n2)CC1=O (configuration not stated) | -4.27
Cc1ccc2c(n1)N(CC1CC1)CCN(C(=O)NC1CC1)C2 | -7.71
O=C(c1cc(C2CC2)nc2onc(-c3ccccc3)c12)N1CC(O)C1 | 16.9

SMILES | cytotoxicity at 70.5 h [%]
O[C@H]1[C@H](n2cc(-c3ccccc3)nn2)c2ccccc2C12CCNCC2 | 2.04
N#CCCN(Cc1ccccn1)C(=O)Nc1cccc(F)c1 | -6.04
Cc1cccc(C(C(=O)NC(C)(C)CN2CCCC2)N(C)C)c1 (configuration not stated) | -8.64
CCc1sc(-c2nnc(CNC(C)Cn3cccn3)o2)cc1C (configuration not stated) | -11.3
CC(C)NC(=O)N1CCC2(CC(=O)N(c3ccsc3)C2)C1 (configuration not stated) | -14.3
CC(C)(NS(C)(=O)=O)c1nc(-c2cccc(Cl)c2)no1 | -4.4
Cc1ccccc1-n1ncc2c(=O)n(CCN3CCCC3)cnc21 | 26.8
CCOC(=O)N1CCN(C(=O)c2cc(OCC)c3ccoc3c2)CC1 | 50
COc1cc(F)c(S(=O)(=O)Nc2cnc(O)cc2C)cc1OC | -11.9
CCc1ccc(O)c(C(=O)N2CCN(CC(=O)N(C)C)CC2)c1 | -1.61
CC(N1CCN(C(=O)NCc2cccc(C#N)c2)CC1)C(F)(F)F (configuration not stated) | -0.642
CC1CN(C)c2ccccc2CN1C(=O)NCc1ccon1 (configuration not stated) | -0.0778
O=C(O)CCCNC(=O)N1CCc2c([nH]c3ccc(Cl)cc23)C1 | -7.18
COc1ccc(-c2nc(CNC3CCc4nc(C)nn4C3)no2)cc1 (configuration not stated) | -3.37
O=C(COCC1CC1)N1CCCC1c1nc(-c2ccccc2F)c[nH]1 (configuration not stated) | 2.15
CC1c2cc(F)ccc2CCN1C(=O)c1[nH]c(=O)[nH]c(=O)c1N (configuration not stated) | -2.24
CC(=O)c1cc2c(=O)[nH]c(=O)n(C)c2nc1C | -9.65
N#Cc1csc(CNCCOc2ccccc2)c1 | 0.519
COc1cc(CN2CC[C@H](NC(C)=O)[C@@H](O)CC2)ccc1F | 12.1
Cc1ncncc1-c1ccnc(N)n1 | -2.72
CN1CCC(Cc2nc(-c3cnccn3)n(C3CCS(=O)(=O)C3)n2)CC1 (configuration not stated) | 0.375
Cc1sc2ncc(-c3ccnc(NC4CCN(C)CC4)n3)c(=O)n2c1C | -2.25
Cc1ccc([C@@H]2CN(C(=O)c3csc(C)n3)C[C@H]2NC(=O)C2CC2)cc1 | -12.3

SMILES | cytotoxicity at 70.5 h [%]
CC(C)(C)c1cc(CNC(=O)c2cc(COc3ccccc3)[nH]n2)[nH]n1 | 8.48
Cc1ccc(CN(CCCn2ccnc2)Cc2c[nH]nc2C(C)(C)C)s1 | -0.375
COC(=O)c1sc2cccc(F)c2c1CNC(=O)C1CCCO1 (configuration not stated) | 6.87
COCCCNc1ncc(-c2cccc(F)c2)c(-c2nccn2C)n1 | -6.45
CC(C)c1nc(CCn2cncn2)n(-c2ccc3c(c2)OCCO3)n1 | -12.6
CC(C)CCNC(=O)c1sccc1N(C)S(=O)(=O)c1ccccc1 | 33.2
CC(=O)c1cccc(OCCCC(=O)NCC2CCCN2C)c1 (configuration not stated) | 7.09
CCc1cnc(C)nc1NCCN1CCOCC1 | -0.575
c1ccc(Cc2noc(CN3CCCCC3C3OCCO3)n2)cc1 (configuration not stated) | -2.71
C[S+]([O-])c1ccc(NC(=O)Cc2cccnc2)cc1F (configuration not stated) | 11.1
CCOCCN1CCN(CC2(O)CCCCC2)CC1 | -4.54
O=S(=O)(Nc1ccc(N2CCOCC2)cn1)c1ccc(F)cc1 | 9.02
Cc1ccn(CC(=O)NCCCOc2ccccc2F)c(=O)c1 | -7.65
Cc1ccc(C(NC(=O)CC2CCN(C(C)C)CC2)C(=O)O)cc1 (configuration not stated) | -3.16
Cc1cc(CN(C2CC2)C(C)C(C)C)no1 (configuration not stated) | -2.85
Cc1cccc(CN2CCC23CCCNC3)n1 (configuration not stated) | -9.59
Cc1nc(CCC(N)=O)cc(C2CCCCN2S(C)(=O)=O)n1 (configuration not stated) | -1.31
CN1CCC(CNC(=O)Cc2ccc(N(C)C)cc2)CC1 | -6.81
N#Cc1cc2c(=O)n(CC(O)Cc3ccccc3)ccc2[nH]c1=O (configuration not stated) | -13.6
O=C1NC2(CCNCC2)CC1c1ccncc1 (configuration not stated) | 10.1
